According to patent US20030139391A1 (priority 2000, published 2003):

Test system: Patients diagnosed with Alzheimer's Disease
Assay: Adverse events and discontinuation in 5-month slow-titration trial
Type: in vivo, human
Description: Subjects in the Placebo group received 21 weeks (5 months) of placebo medication.
The safety of the drug was also monitored throughout the study. Blood samples for biochemistry and haematology and random urine sample for urinalysis were taken at each visit and at completion for all efficacy testing. Systolic and diastolic blood pressure were measured in the sitting position, pulse and vital signs were recorded at each visit.

COc1ccc2c3c1O[C@H]1C[C@@H](O)C=C[C@@]31CCN(C)C2 [GAL, galantamine]
Agitation: % of patients (8 mg/day): (15.0%)
Agitation: number of patients (8 mg/day): 21
Anorexia: % of patients (8 mg/day): (5.7%)
Anorexia: number of patients (8 mg/day): 8
Bradycardia: % of patients (8 mg/day): (3.6%)
Bradycardia: number of patients (8 mg/day): 5
Convulsions: number of patients (8 mg/day): 0
DC due to adverse event: % (8 mg/day): 6%
DC due to adverse event: N (8 mg/day): 9
DC due to inefficacy: % (8 mg/day): 1 (1%)
DC due to inefficacy: N (8 mg/day): 1 (1%)
Depression: % of patients (8 mg/day): (2.9%)
Depression: number of patients (8 mg/day): 4
Diarrhea: % of patients (8 mg/day): (5.0%)
Diarrhea: number of patients (8 mg/day): 7
Dizziness: % of patients (8 mg/day): (5.0%)
Dizziness: number of patients (8 mg/day): 7
Dyspepsia: % of patients (8 mg/day): (2.9%)
Dyspepsia: number of patients (8 mg/day): 4
Edema peripheral: % of patients (8 mg/day): (6.4%)
Edema peripheral: number of patients (8 mg/day): 9
Fall: % of patients (8 mg/day): (7.9%)
Fall: number of patients (8 mg/day): 11
Fatigue: % of patients (8 mg/day): (2.1%)
Fatigue: number of patients (8 mg/day): 3
Headache: % of patients (8 mg/day): (3.6%)
Headache: number of patients (8 mg/day): 5
Injury: % of patients (8 mg/day): (3.6%)
Injury: number of patients (8 mg/day): 5
Muscle weakness: % of patients (8 mg/day): (0.7%)
Muscle weakness: number of patients (8 mg/day): 1
Nausea: % of patients (8 mg/day): (5.7%)
Nausea: number of patients (8 mg/day): 8
Rhinitis: % of patients (8 mg/day): (6.4%)
Rhinitis: number of patients (8 mg/day): 9
Serious adverse event Abdominal pain: % (8 mg/day): (0.0%)
Serious adverse event Abdominal pain: number (8 mg/day): 0
Serious adverse event Agitation: % (8 mg/day): (1.4%)
Serious adverse event Agitation: number (8 mg/day): 2
Serious adverse event Asthenia: % (8 mg/day): (0.0%)
Serious adverse event Asthenia: number (8 mg/day): 0
Serious adverse event Basal cell carcinoma: % (8 mg/day): (0.0%)
Serious adverse event Basal cell carcinoma: number (8 mg/day): 0
Serious adverse event Breast neoplasm female: % (8 mg/day): (0.0%)
Serious adverse event Breast neoplasm female: number (8 mg/day): 0
Serious adverse event Cardiac failure: % (8 mg/day): (0.0%)
Serious adverse event Cardiac failure: number (8 mg/day): 0
Serious adverse event Dehydration: % (8 mg/day): (0.0%)
Serious adverse event Dehydration: number (8 mg/day): 0
Serious adverse event Diarrhea: % (8 mg/day): (0.0%)
Serious adverse event Diarrhea: number (8 mg/day): 0
Serious adverse event Dyspnea: % (8 mg/day): (0.0%)
Serious adverse event Dyspnea: number (8 mg/day): 0
Serious adverse event Fall: % (8 mg/day): (2.9%)
Serious adverse event Fall: number (8 mg/day): 4
Serious adverse event Gi haemorrhage: % (8 mg/day): (0.0%)
Serious adverse event Gi haemorrhage: number (8 mg/day): 0
Serious adverse event Injury: % (8 mg/day): (0.7%)
Serious adverse event Injury: number (8 mg/day): 1
Serious adverse event Myocardial infarction: % (8 mg/day): (2.1%)
Serious adverse event Myocardial infarction: number (8 mg/day): 3
Serious adverse event Nausea: % (8 mg/day): (0.0%)
Serious adverse event Nausea: number (8 mg/day): 0
Serious adverse event Pneumonia: % (8 mg/day): (0.7%)
Serious adverse event Pneumonia: number (8 mg/day): 1
Serious adverse event Sepsis: % (8 mg/day): (0.0%)
Serious adverse event Sepsis: number (8 mg/day): 0
Serious adverse event Surgical intervention: % (8 mg/day): (0.0%)
Serious adverse event Surgical intervention: number (8 mg/day): 0
Serious adverse event Syncope: % (8 mg/day): (0.7%)
Serious adverse event Syncope: number (8 mg/day): 1
Serious adverse event Thrombophlebitis deep: % (8 mg/day): (0.0%)
Serious adverse event Thrombophlebitis deep: number (8 mg/day): 0
Serious adverse event Transient ischemic attack: % (8 mg/day): (0.7%)
Serious adverse event Transient ischemic attack: number (8 mg/day): 1
Serious adverse event Urinary tracq infection: % (8 mg/day): (0.7%)
Serious adverse event Urinary tracq infection: number (8 mg/day): 1
Serious adverse event Vomiting: % (8 mg/day): (0.0%)
Serious adverse event Vomiting: number (8 mg/day): 0
Syncope: % of patients (8 mg/day): (1.4%)
Syncope: number of patients (8 mg/day): 2
Total discontinued (DC): % (8 mg/day): 23%
Total discontinued (DC): N (8 mg/day): 32
Total patients with any SAE: % (8 mg/day): (10.0%)
Total patients with any SAE: number (8 mg/day): 14
Urinary tract infection: % of patients (8 mg/day): (7.9%)
Urinary tract infection: number of patients (8 mg/day): 11
Vomiting: % of patients (8 mg/day): (3.6%)
Vomiting: number of patients (8 mg/day): 5
Weight decrease: % of patients (8 mg/day): (1.4%)
Weight decrease: number of patients (8 mg/day): 2
Agitation: % of patients (16 mg/day): (10.0%)
Agitation: number of patients (16 mg/day): 28
Anorexia: % of patients (16 mg/day): (6.5%)
Anorexia: number of patients (16 mg/day): 18
Bradycardia: % of patients (16 mg/day): (2.5%)
Bradycardia: number of patients (16 mg/day): 7
Convulsions: number of patients (16 mg/day): 0
DC due to adverse event: % (16 mg/day): 7%
DC due to adverse event: N (16 mg/day): 19
DC due to inefficacy: N (16 mg/day): 0
Depression: % of patients (16 mg/day): (8.6%)
Depression: number of patients (16 mg/day): 24
Diarrhea: % of patients (16 mg/day): (12.2%)
Diarrhea: number of patients (16 mg/day): 34
Dizziness: % of patients (16 mg/day): (5.4%)
Dizziness: number of patients (16 mg/day): 15
Dyspepsia: % of patients (16 mg/day): (4.7%)
Dyspepsia: number of patients (16 mg/day): 13
Edema peripheral: % of patients (16 mg/day): (2.9%)
Edema peripheral: number of patients (16 mg/day): 8
Fall: % of patients (16 mg/day): (5.05%)
Fall: number of patients (16 mg/day): 14
Fatigue: % of patients (16 mg/day): (3.6%)
Fatigue: number of patients (16 mg/day): 10
Headache: % of patients (16 mg/day): (6.8%)
Headache: number of patients (16 mg/day): 19
Injury: % of patients (16 mg/day): (4.3%)
Injury: number of patients (16 mg/day): 12
Muscle weakness: % of patients (16 mg/day): (1.1%)
Muscle weakness: number of patients (16 mg/day): 3
Nausea: % of patients (16 mg/day): (13.3%)
Nausea: number of patients (16 mg/day): 37
Rhinitis: % of patients (16 mg/day): (3.2%)
Rhinitis: number of patients (16 mg/day): 9
Serious adverse event Abdominal pain: % (16 mg/day): (0.7%)
Serious adverse event Abdominal pain: number (16 mg/day): 2
Serious adverse event Agitation: % (16 mg/day): (0.4%)
Serious adverse event Agitation: number (16 mg/day): 1
Serious adverse event Asthenia: % (16 mg/day): (0.7%)
Serious adverse event Asthenia: number (16 mg/day): 2
Serious adverse event Basal cell carcinoma: % (16 mg/day): (0.0%)
Serious adverse event Basal cell carcinoma: number (16 mg/day): 0
Serious adverse event Breast neoplasm female: % (16 mg/day): (0.0%)
Serious adverse event Breast neoplasm female: number (16 mg/day): 0
Serious adverse event Cardiac failure: % (16 mg/day): (1.1%)
